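A five-concentration, 48-hour dose response in 96-well plates underlies each endpoint, interpolated linearly between surrounding concentrations. TGI marks complete inhibition of growth.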
Each compound was assayed on CAKI-1 renal (assay: NCI-60 cell line screen, 48 h).
Nc1cc2[nH]c(=O)c(=O)[nH]c2cc1N gave a TGI greater than 100 µM.
With C[N+](C)(C)CC1CCCCCCCCCCC1=O (stereo unspecified) the TGI was greater than 100 µM.
COCN(CCC1=CCCCC1)C(=O)OC showed a TGI greater than 100 µM.

Each compound was assayed on HCC-2998 colon (assay: NCI-60 cell line screen, 48 h).
Nc1cc2[nH]c(=O)c(=O)[nH]c2cc1N was tested, and the TGI was greater than 100 µM.
Work on C[N+](C)(C)CC1CCCCCCCCCCC1=O (stereo unspecified) yielded a TGI greater than 100 µM.
COCN(CCC1=CCCCC1)C(=O)OC was tested, and the TGI was greater than 100 µM.

Each compound was assayed on HOP-92 NSCLC (assay: NCI-60 cell line screen, 48 h).
Nc1cc2[nH]c(=O)c(=O)[nH]c2cc1N gave a TGI greater than 100 µM.
Compound C[N+](C)(C)CC1CCCCCCCCCCC1=O (stereo unspecified) has a TGI greater than 100 µM.
COCN(CCC1=CCCCC1)C(=O)OC showed a TGI greater than 100 µM.

What follows are compounds tested on HS 578T breast (assay: NCI-60 cell line screen, 48 h).
Nc1cc2[nH]c(=O)c(=O)[nH]c2cc1N gave a TGI greater than 100 µM.
With C[N+](C)(C)CC1CCCCCCCCCCC1=O (stereo unspecified) the TGI was greater than 100 µM.
COCN(CCC1=CCCCC1)C(=O)OC gave a TGI greater than 100 µM.

The compounds below were run on K-562 leukemia (assay: NCI-60 cell line screen, 48 h).
For Nc1cc2[nH]c(=O)c(=O)[nH]c2cc1N, the TGI was greater than 100 µM.
In the case of C[N+](C)(C)CC1CCCCCCCCCCC1=O (stereo unspecified), the TGI is reported as greater than 100 µM.
With COCN(CCC1=CCCCC1)C(=O)OC the TGI was greater than 100 µM.

These compounds were tested on MDA-MB-435 (assay: NCI-60 cell line screen, 48 h).
Compound Nc1cc2[nH]c(=O)c(=O)[nH]c2cc1N has a TGI greater than 100 µM.
For C[N+](C)(C)CC1CCCCCCCCCCC1=O (stereo unspecified), the TGI was greater than 100 µM.
For COCN(CCC1=CCCCC1)C(=O)OC, the TGI was greater than 100 µM.

Each compound was assayed on NCI-H460 lung (assay: NCI-60 cell line screen, 48 h).
Compound Nc1cc2[nH]c(=O)c(=O)[nH]c2cc1N has a TGI greater than 100 µM.
C[N+](C)(C)CC1CCCCCCCCCCC1=O (stereo unspecified) gave a TGI greater than 100 µM.
For COCN(CCC1=CCCCC1)C(=O)OC, the TGI was greater than 100 µM.

What follows are compounds tested on SK-MEL-2 melanoma (assay: NCI-60 cell line screen, 48 h).
For Nc1cc2[nH]c(=O)c(=O)[nH]c2cc1N, the TGI was greater than 100 µM.
C[N+](C)(C)CC1CCCCCCCCCCC1=O (stereo unspecified) showed a TGI greater than 100 µM.
For COCN(CCC1=CCCCC1)C(=O)OC, the TGI was greater than 100 µM.

Each compound was assayed on SK-MEL-5 melanoma (assay: NCI-60 cell line screen, 48 h).
Nc1cc2[nH]c(=O)c(=O)[nH]c2cc1N gave a TGI greater than 100 µM.
C[N+](C)(C)CC1CCCCCCCCCCC1=O (stereo unspecified) showed a TGI greater than 100 µM.
COCN(CCC1=CCCCC1)C(=O)OC showed a TGI greater than 100 µM.

These compounds were tested on SR leukemia (assay: NCI-60 cell line screen, 48 h).
In the case of Nc1cc2[nH]c(=O)c(=O)[nH]c2cc1N, the TGI is reported as greater than 100 µM.
C[N+](C)(C)CC1CCCCCCCCCCC1=O (stereo unspecified) gave a TGI greater than 100 µM.
With COCN(CCC1=CCCCC1)C(=O)OC the TGI was greater than 100 µM.

These compounds were tested on TK-10 renal (assay: NCI-60 cell line screen, 48 h).
With Nc1cc2[nH]c(=O)c(=O)[nH]c2cc1N the TGI was greater than 100 µM.
For C[N+](C)(C)CC1CCCCCCCCCCC1=O (stereo unspecified), the TGI was greater than 100 µM.
With COCN(CCC1=CCCCC1)C(=O)OC the TGI was greater than 100 µM.

The compounds below were run on U251 CNS (assay: NCI-60 cell line screen, 48 h).
For Nc1cc2[nH]c(=O)c(=O)[nH]c2cc1N, the TGI was greater than 100 µM.
C[N+](C)(C)CC1CCCCCCCCCCC1=O (stereo unspecified) gave a TGI greater than 100 µM.
Work on COCN(CCC1=CCCCC1)C(=O)OC yielded a TGI greater than 100 µM.

Source: PubChem BioAssay (NCI)
